The data set in a line: Test Example 1: concentration of compound A in plasma and brain after oral administration to rats. The data set is classed as in vivo, rat. To be noted: for Brain MRT (mean residence time) of the compound A / Brain T1/2 (elimination half-life) of the compound A / Plasma MRT (mean residence time) of the compound A / Plasma T1/2 (elimination half-life) of the compound A: rat (Crl: CD male), oral, without fasting, 56 mg/kg compound A maleate or 58 mg/kg compound A oxide maleate; for Brain MRT (mean residence time) of the compound A / Brain T1/2 (elimination half-life) of the compound A: compound A measured in brain; for Plasma MRT (mean residence time) of the compound A / Plasma T1/2 (elimination half-life) of the compound A: compound A measured in plasma. The procedure: In the compound A administration solution, the concentration of the compound A maleate was adjusted to be 14 mg/mL by dissolving the compound A maleate in a physiological saline solution. In the compound A oxide administration solution, the concentration of the compound A oxide maleate was adjusted to be 14.54 mg/mL by dissolving the compound A oxide maleate in a physiological saline solution.
Each of the administration solutions was orally administered to rats (Crl: CD strain male rat: 8 weeks old) without fasting. The dosage was set at 56 mg/kg for the compound A administration group and 58 mg/kg for the compound A oxide administration group.
At 0.25, 0.5, 1, 2, 5, 8, 10 and 12 hours after the administration, for each group, heparinized whole blood was collected from the aorta abdominalis under mild ether anesthesia, and then the rats were killed by exsanguination and the brains were excised.
The collected blood was centrifuged at 4° C. for 10 minutes at approximately 1600×g to obtain the plasma. To 100 μL of the resulting plasma was added 900 μL of distilled water containing 25 ng/mL of the internal standard substance and 25 μL of phosphoric acid, and the resulting mixture was stirred, followed by adding to a solid-phase extraction plate (Oasis HLB 10 mg or 30 mg, manufactured by Waters) which was conditioned with methanol and distilled water. The solid-phase extraction plate was washed with 2 mL of distilled water, followed by eluting with 2 mL of acetonitrile. The eluate was concentrated and dried-up and then dissolved in a mobile phase A solution, followed by centrifuging at 4° C. for 10 minutes at approximately 1600×g. The resulting supernatant was subjected to a liquid chromatography-tandem mass spectrometer to determine the concentration of the compound A in the plasma of each group.
The excised brains were homogenized with 25% ammonia water/methanol (1:49) (10-fold volume of the wet brain weight) and then 2 mL of the homogenate was centrifuged at 4° C. for 10 minutes at approximately 1600×g to separate the supernatant. To the sediment was added 2 mL of 25% ammonia water/methanol (1:49), followed by centrifuging at 4° C. for 10 minutes at approximately 1600×g. These supernatants were combined and concentrated and dried-up and then dissolved in 1 mL of distilled water containing 25 ng/mL of the internal standard substance. To the resulting solution was added 25 μL of phosphoric acid and the resulting mixture was stirred, followed by subjecting to a solid-phase extraction operation similar to that for the above plasma. The resulting eluate was concentrated and dried-up and then dissolved in the mobile phase A solution or 50% methanol, followed by centrifuging at 4° C. for 10 minutes at approximately 1600×g. The resulting supernatant was subjected to the liquid chromatography-tandem mass spectrometer to determine the concentration of the compound A in the brain of each group.
The following instruments and conditions were used for the measurement of the concentration of the compound A.

The mark [1] stands for this setting: rat, oral administration of the compound A oxide, result in words.

The values below come from patent US8026232B2, “Benzothiophene oxide derivative and salt thereof” (Toyama Chemical Co., Ltd., priority 2008, dated 2011).

Where a name gives a salt, the structure may show the parent alone.

Take `O=C(O)/C=C\C(=O)O.OC1CN(CCCOCCc2ccc3sccc3c2)C1` [Compound A Maleate, 1-(3-(2-(1-benzothiophen-5-yl)ethoxy)propyl)azetidin-3-ol maleate, reference compound]: the “Brain MRT (mean residence time) of the compound A” value was found to be 3.01 h, the “Brain T1/2 (elimination half-life) of the compound A” value stood at 1.53 h, the “Plasma MRT (mean residence time) of the compound A” value came to 2.86 h and the “Plasma T1/2 (elimination half-life) of the compound A” value came out at 1.56 h.
`[O-][s+]1ccc2cc(CCOCCCN3CC(O)C3)ccc21` (stereo not shown) [compound A oxide, 1-(3-(2-(1-benzothiophen-5-yl)ethoxy)propyl)azetidin-3-ol S-oxide]: under setting [1], the “concentration of the compound A in the plasma and brain” value was “maintained at a high concentration”; the “residence time of the compound A in the body” value is reported as “prolonged”.
Turning to `[O-][s+]1ccc2cc(CCOCCCN3CC(O)C3)ccc21` (stereo not shown) [Compound A oxide Maleate, 1-(3-(2-(1-benzothiophen-5-yl)ethoxy)propyl)azetidin-3-ol S-oxide maleate], the “Brain MRT (mean residence time) of the compound A” value was 5.72 h, the “Brain T1/2 (elimination half-life) of the compound A” value was 2.28 h, the “Plasma MRT (mean residence time) of the compound A” value was 5.41 h and the “Plasma T1/2 (elimination half-life) of the compound A” value is 2.69 h.
